The source of these data is patent US9243076B2 (PIERRE FABRE MEDICAMENT, priority 2004, dated 2016).

Data set [1] can be described thus: Dissolution of the powder in aqueous solution (equivalent of 4 g/l piroxicam, sample after 15 min, HPLC). The class given is physicochemical. To be noted: equivalent of 4 g/l of piroxicam in aqueous solution at 37° C.
The conditions of data set [2]: 2:1 (v/v) dioxane:water mixture; cited from earlier work.

Turning to `CN1C(C(=O)Nc2ccccn2)=C(O)c2ccccc2S1(=O)=O` [piroxicam], in data set [1], the “Dissolution of the piroxicam (g/l)” value is listed as “less than 0.2 g/l”. In addition, the “Dissolution of the piroxicam” value in data set [1] (listed as Piroxicam) was below 0.2 g/L. Further, in data set [2], the “pKa value of the enol functional group” value was around 2.
